From US20080241084A1, “Compositions and methods for inhibiting melanogenesis” (Shaklee Corporation, priority 2007, published 2008)
Where “and” joins values, the source holds several entries; their conditions need not be identical. Equal entries are not always repeated.

Assays:
[1] = tested on: MelanoDerm tissue (MEL-300-B); assay: Melanin assay on MelanoDerm tissue (MEL-300-B); format: cell-based, human; set-up: % melanin content relative to the Negative Control / % melanin content relative to the Positive Control: concentration or dose not given beside the values; conditions: for Melanin content of the two tested samples for each test article: 25 μL applied Days 0, 1, 3, 6, 8
Protocol: (§1) The effects of the test articles on skin color, melanin production, melanocyte morphology and dendricity and tissue morphology were assessed using MelanoDerm tissue (MEL-300-B). MelanoDerm tissue is another epidermal equivalent system from the MatTek Corporation of Ashland, Mass. This system consists of normal, human-derived epidermal keratinocytes (NHEK) and melanocytes (NHM) which have been cultured to form a multilayered, highly differentiated model of the human epidermis. The NHM within co-cultures undergo spontaneous melanogenesis leading to tissue pigmentation. The MEL-300-B system contains melanocytes derived from a donor.
On Day zero of the study, prior to exposure to any test articles, MelanoDerm tissue samples were placed into wells on plates containing maintenance medium that had been pre-warmed to about 37° C. (Long life maintenance medium, EPI-100-LLMM). The Melanoderm tissue samples were then incubated for about an hour in a humidified incubator maintained at a temperature of about 37° C. in an atmosphere of about 5% CO2. Following incubation, the maintenance medium was removed by aspiration. A cell culture stand was then placed in each well on the plate containing a MelanoDerm tissue sample. About 5 mL of fresh maintenance medium pre-warmed to about 37° C. was then added to each well having a MelanoDerm tissue sample. Then a cell culture insert was placed on top of each cell culture stand. 25 μL portions of each of GS, SB, A, FS, DG, Mix, negative control, and positive control were applied by pipette to six separate MelanoDerm tissue samples for each test article being tested (e.g., GS was applied to six tissue samples in six different wells). 25 μL portions of each of the test articles and controls were also applied to the same MelanoDerm tissue samples on Days, 1, 3, 6, and 8 of the study for each sample remaining (some samples were used for testing). Throughout the study, the maintenance medium was changed every two days to maintain the MelanoDerm tissue samples.
On each of Days 3, 7, 10, and 14, one tissue sample for each test article and control was fixed with formalin, photographed to document macroscopic darkening, microscopically observed to examine melanocyte morphology and dendricity, then processed for histology. On Days 10 and 14, two tissue samples for each test article and control were frozen and later assayed for melanin content.
To assay the tissues for melanin content, the frozen tissues were thawed and placed in Dulbecco's phosphate buffered saline (D-PBS) to remove excess phenol red from the maintenance medium. The tissues were removed from the D-PBS and each tissue was blotted dry and placed in a separate 1.7 ml microfuge tube. To each microfuge tube 250 μl of a tissue and gel solubilizer was added (Solvable™, 0.5 M—Packard BioScience Co. Catalogue No. 6NE9 100 (NEF910)). Dilutions for creating a standard curve were also prepared containing from 0-250 μg of melanin (Sigma cat. M 8631) in a total of 250 μl Solvable™. The tissues were incubated in their tubes overnight at about 60° C. overnight along with the dilutions. The tissue samples were then vortexed. Then the tissue samples were centrifuged at 13,000 rpm for 5 minutes to pellet. The supernatant from the tissue samples was collected. 250 μl of the supernatant from each tissue sample as well as the dilutions were then added to separate wells of a microwell plate. The plate was read at 490 nm. The optical densities of the dilutions were used to prepare a standard curve against which the optical densities of the tissue sample supernatants could be compared to determine the melanin content of the tissue samples. […]

[2] = tested on: MelanoDerm tissue (MEL-300-B); assay: Macroscopic skin lightening of fixed MelanoDerm tissue; format: cell-based, human; conditions: fixed tissues
Protocol: as §1
On Day zero of the study, prior to exposure to any test articles, MelanoDerm tissue samples were placed into wells on plates containing maintenance medium that had been pre-warmed to about 37° C. (Long life maintenance medium, EPI-100-LLMM). The Melanoderm tissue samples were then incubated for about an hour in a humidified incubator maintained at a temperature of about 37° C. in an atmosphere of about 5% CO2. Following incubation, the maintenance medium was removed by aspiration. A cell culture stand was then placed in each well on the plate containing a MelanoDerm tissue sample. About 5 mL of fresh maintenance medium pre-warmed to about 37° C. was then added to each well having a MelanoDerm tissue sample. […]

[3] = tested on: EpiDerm tissue (normal, human-derived epidermal keratinocytes); assay: MTT tissue viability assay on EpiDerm tissue; format: cell-based; conditions: 48 hours of exposure, negative control = 100%
Protocol: The effect of the tested articles on cell viability was determined with an MTT assay. 10 μL and 25 μL portions of each of GS, SB, A, FS, DG and Mix were applied to separate duplicate samples of EpiDerm tissue (e.g., GS was applied to four tissue samples, with two samples receiving 10 μL and two samples receiving 25 μL of GS). 25 μL of the negative control was applied to each of three separate samples of EpiDerm tissue. EpiDerm tissue is an epidermal equivalent system from the MatTek Corporation of Ashland, Mass., consisting of normal, human-derived epidermal keratinocytes (NHEK) which have been cultured to form a multilayered, highly differentiated model of the human epidermis. After 48 hours of exposure to the test article or negative control each sample was rinsed with phosphate buffered saline (PBS) and the viability of the tissue (referenced to the negative control) was determined using the MTT tissue viability assay.
The MTT assay determines cell viability by measuring the amount of 3-(4,5-dimethylthiazol-2-yl)-2,5-diphenyltetrazolium bromide (MTT) dye taken up by the cell cultures. Viable cells take up this dye and convert it to insoluble formazin crystals that resides in the mitochondria of the cells until extracted with alcohol. […] MTT was measured spectrophotometrically and the optical density of each sample was determined. […]

| SMILES | % melanin content relative to the Negative Control ([1]; Day 10) [%] | % melanin content relative to the Positive Control ([1]; Day 10) [%] | Average melanin content ([1]; Day 10) [μg/tissue] | Melanin content of the two tested samples for each test article ([1]; Day 10) | % melanin content relative to the Negative Control ([1]; Day 14) [%] | % melanin content relative to the Positive Control ([1]; Day 14) [%] | Average melanin content ([1]; Day 14) [μg/tissue] | Melanin content of the two tested samples for each test article ([1]; Day 14) | macroscopic lightening compared with the negative control ([2]; Days 3, 7, 10, and 14) | % Viability of tissue sample exposed to test article ([3]; 10 mL (so in the source) applied) [%] | % Viability of tissue sample exposed to test article ([3]; 25 mL (so in the source) applied) [%] | melanin content compared with the negative control (in words) ([1]; Day 10 and Day 14) | macroscopic lightening compared with the negative control ([2]; Days 3, 7, and 10) |
| --- | --- | --- | --- | --- | --- | --- | --- | --- | --- | --- | --- | --- | --- |
| CC1(C)[C@@H](O[C@H]2O[C@H](C(=O)[O-])[C@@H](O)[C@H](O)[C@H]2O[C@@H]2O[C@H](C(=O)[O-])[C@@H](O)[C@H](O)[C@H]2O)CC[C@]2(C)[C@H]3C(=O)C=C4[C@@H]5C[C@@](C)(C(=O)O)CC[C@]5(C)CC[C@@]4(C)[C@]3(C)CC[C@@H]12.[K+].[K+] [DG, dipotassium glycyrrhizate] | 100.6 | 109.5 | 24.8 | 27.3 μg/tissue and 22.3 μg/tissue | 85.8 | 118.7 | 31.8 | 26.0 μg/tissue and 37.6 μg/tissue | lightening effect | 94.62 | 94.46 | – | – |
| O=c1cc(CO)occ1O [Positive Control, kojic acid] | 91.9 | 100.0 | 22.7 | 25.0 μg/tissue and 20.3 μg/tissue | 72.3 | 100.0 | 26.8 | 26.6 μg/tissue and 27.0 μg/tissue | – | – | – | lower melanin content than the negative control | lighter than the negative control |
